Assay results reported in patent publication US9499464B2, “Opsin-binding ligands, compositions and methods of use” (priority 2011, dated 2016).

Tested on: P23H opsin
Assay: Rhodopsin purification and regeneration (P23H cells treated with compound, regenerated with 9-cis-retinal, 480-500 nm absorbance)
Conditions: P23H cells, 48 hours, regeneration with 9-cis-retinal (20 μM)

SMILES | Fold Increase Over Control (480-500 nm absorbance as fold increase over the DMSO control) (compound concentration 10 μM) [fold] | Fold Increase Over Control (480-500 nm absorbance as fold increase over the DMSO control) (compound concentration 20 μM) [fold]
CC1=CC(=O)[C@H]2C(C)(C)CCC[C@@]12C (racemic) [Compound 1, (±)-(3aR,7aS)-3,3a,7,7-tetramethyl-3a,4,5,6,7,7a-hexahydro-1H-inden-1-one] | 1.7 | 
CC1(C)CCC(C)(C)[C@H]2OC(=O)C[C@H]21 (racemic) [Compound 3, (±)-(3aS,7aS)-4,4,7,7-tetramethylhexahydrobenzofuran-2(3H)-one] |  | 2.2
CC1(C)CCC[C@@]2(C)C(=O)CC[C@@H]12 (racemic) [Compound 5, (±)-(3aS,7aR)-4,4,7a-trimethyloctahydro-1H-inden-1-one] | 1.7 | 
COC(=O)C1=C[C@]2(C)CCCC(C)(C)[C@@H]2C1 (racemic) [Compound 8, (±)-(3aS,7aS)-methyl 3a,7,7-trimethyl-3a,4,5,6,7,7a-hexahydro-1H-indene-2-carboxylate] |  | 2.1
CC1=CC(=NO)[C@H]2C(C)(C)CCC[C@@]12C (racemic) [Compound 14, (±)-(3aR,7aS)-3,3a,7,7-tetramethyl-3a,4,5,6,7,7a-hexahydro-1H-inden-1-one oxime] |  | 2.4
C[C@@H]1CC(=NO)[C@H]2C(C)(C)CCC[C@@]12C (racemic) [Compound 16, (±)-(3R,3aS,7aS)-3,3a,7,7-tetramethyloctahydro-1H-inden-1-one oxime] |  | 2.2
CC1(C)CCC[C@@]2(C)[C@@H](O)CC[C@@H]12 (racemic) [Compound 18, (±)-(1S,3aS,7aR)-4,4,7a-trimethyloctahydro-1H-inden-1-ol] |  | 1.7
C[C@H]1C(=O)C=C2C(C)(C)CCC[C@]21C (racemic) [Compound 20, (±)-(1R,7aS)-1,4,4,7a-tetramethyl-5,6,7,7a-tetrahydro-1H-inden-2(4H)-one] |  | 1.9
CC1(C)CCC[C@@]2(C)C=C(CO)C[C@@H]12 (racemic) [Compound 22, (±)-((3aS,7aS)-3a,7,7-trimethyl-3a,4,5,6,7,7a-hexahydro-1H-inden-2-yl)methanol] |  | 1.8
CC1(C)CCC[C@@]2(C)CC(CO)C[C@@H]12 (mixture of isomers) [Compound 26, (±)-((3aS,7aS)-3a,7,7-trimethyloctahydro-1H-inden-2-yl)methanol] |  | 2.3
CC1(C)CCC[C@@]2(C)C(c3ccccc3)=CC(=O)[C@@H]12 (racemic) [Compound 28, (±)-(3aR,7aS)-3a,7,7-trimethyl-3-phenyl-3a,4,5,6,7,7a-hexahydro-1H-inden-1-one] | 1.7 | 
CC(C)C1=CC(=O)[C@H]2C(C)(C)CCC[C@@]12C (racemic) [Compound 29, (±)-(3aR,7aS)-3-isopropyl-3a,7,7-trimethyl-3a,4,5,6,7,7a-hexahydro-1H-inden-1-one] | 2.4 | 
CC1(C)CCC[C@@]2(C)C(=NO)CC[C@@H]12 (racemic) [Compound 33, (±)-(3aS,7aR)-4,4,7a-trimethyloctahydro-1H-inden-1-one oxime] | 1.8 | 
CCC1=CC(=O)[C@H]2C(C)(C)CCC[C@@]12C (racemic) [Compound 34, (±)-(3aR,7aS)-3-ethyl-3a,7,7-trimethyl-3a,4,5,6,7,7a-hexahydro-1H-inden-1-one] | 2.2 | 
CC1(C)CCC[C@@]2(C)C=C[C@H](O)[C@@H]12 (racemic) [Compound 36, (±)-(1S,3aS,7aS)-3a,7,7-trimethyl-3a,4,5,6,7,7a-hexahydro-1H-inden-1-ol] | 2.0 | 
